Data taken from PubChem BioAssay (NCI).
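Grown in 96-well plates, cells were treated for 48 hours with each compound at five concentrations. Insufficient inhibition: endpoint recorded as highest concentration tested. TGI: total growth inhibition.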

Experiments:
Experiment in all cases: inhibition of tumour cell growth, NCI panel, 48 h
A498 renal = system: A498 renal
A549 NSCLC = system: A549 NSCLC
ACHN renal = system: ACHN renal
CAKI-1 renal = system: CAKI-1 renal
CCRF-CEM leukemia = system: CCRF-CEM leukemia
COLO 205 colon = system: COLO 205 colon
DU-145 prostate = system: DU-145 prostate
EKVX NSCLC = system: EKVX NSCLC
HCC-2998 colon = system: HCC-2998 colon
HCT-116 colon = system: HCT-116 colon
HCT-15 colon = system: HCT-15 colon
HL-60(TB) leukemia = system: HL-60(TB) leukemia
HOP-62 NSCLC = system: HOP-62 NSCLC
HS 578T breast = system: HS 578T breast
HT29 colon = system: HT29 colon
IGROV1 ovarian = system: IGROV1 ovarian
KM12 colon = system: KM12 colon
LOX IMVI melanoma = system: LOX IMVI melanoma
M14 melanoma = system: M14 melanoma
MALME-3M melanoma = system: MALME-3M melanoma
MCF7 breast = system: MCF7 breast
MDA-MB-231 breast = system: MDA-MB-231 breast
MDA-MB-435 = system: MDA-MB-435
MDA-N = system: MDA-N
MOLT-4 leukemia = system: MOLT-4 leukemia
NCI-H226 lung = system: NCI-H226 lung
NCI-H23 lung = system: NCI-H23 lung
NCI-H460 lung = system: NCI-H460 lung
NCI-H522 lung = system: NCI-H522 lung
NCI/ADR-RES ovarian = system: NCI/ADR-RES ovarian
OVCAR-3 ovarian = system: OVCAR-3 ovarian
OVCAR-4 ovarian = system: OVCAR-4 ovarian
OVCAR-5 ovarian = system: OVCAR-5 ovarian
OVCAR-8 ovarian = system: OVCAR-8 ovarian
PC-3 prostate = system: PC-3 prostate
RPMI-8226 leukemia = system: RPMI-8226 leukemia
RXF 393 renal = system: RXF 393 renal
SF-268 CNS = system: SF-268 CNS
SF-295 CNS = system: SF-295 CNS
SF-539 CNS = system: SF-539 CNS
SK-MEL-2 melanoma = system: SK-MEL-2 melanoma
SK-MEL-28 melanoma = system: SK-MEL-28 melanoma
SK-MEL-5 melanoma = system: SK-MEL-5 melanoma
SK-OV-3 ovarian = system: SK-OV-3 ovarian
SN12C renal = system: SN12C renal
SNB-19 CNS = system: SNB-19 CNS
SNB-75 CNS = system: SNB-75 CNS
SR leukemia = system: SR leukemia
SW-620 colon = system: SW-620 colon
T-47D breast = system: T-47D breast
TK-10 renal = system: TK-10 renal
U251 CNS = system: U251 CNS
UACC-62 melanoma = system: UACC-62 melanoma
UO-31 renal = system: UO-31 renal
786-0 renal = system: 786-0 renal
HOP-92 NSCLC = system: HOP-92 NSCLC
K-562 leukemia = system: K-562 leukemia
UACC-257 melanoma = system: UACC-257 melanoma

Molecule `CON(C)c1nc(N)c(C#N)c(C#N)c1C#N` has a TGI (A498 renal) greater than 10 µM, a TGI (A549 NSCLC) greater than 10 µM and a TGI (ACHN renal) greater than 10 µM. The TGI (CAKI-1 renal) was greater than 10 µM, the TGI (CCRF-CEM leukemia) was greater than 10 µM and the TGI (COLO 205 colon) was greater than 10 µM. The TGI (DU-145 prostate) was greater than 10 µM, the TGI (EKVX NSCLC) was greater than 10 µM and the TGI (HCC-2998 colon) was greater than 10 µM. For the same molecule, the TGI (HCT-116 colon) was greater than 10 µM, the TGI (HCT-15 colon) was greater than 10 µM and the TGI (HL-60(TB) leukemia) was greater than 10 µM. The TGI (HOP-62 NSCLC) was greater than 10 µM, the TGI (HS 578T breast) was greater than 10 µM and the TGI (HT29 colon) was greater than 10 µM. The TGI (IGROV1 ovarian) was greater than 10 µM, the TGI (KM12 colon) was greater than 10 µM and the TGI (LOX IMVI melanoma) was greater than 10 µM. The TGI (M14 melanoma) was greater than 10 µM, the TGI (MALME-3M melanoma) was greater than 10 µM and the TGI (MCF7 breast) was greater than 10 µM. The TGI (MDA-MB-231 breast) was greater than 10 µM, the TGI (MDA-MB-435) was greater than 10 µM and the TGI (MDA-N) was greater than 10 µM. The TGI (MOLT-4 leukemia) was greater than 10 µM, the TGI (NCI-H226 lung) was greater than 10 µM and the TGI (NCI-H23 lung) was greater than 10 µM. The TGI (NCI-H460 lung) was greater than 10 µM, the TGI (NCI-H522 lung) was greater than 10 µM and the TGI (NCI/ADR-RES ovarian) was greater than 10 µM. The TGI (OVCAR-3 ovarian) was greater than 10 µM, the TGI (OVCAR-4 ovarian) was greater than 10 µM and the TGI (OVCAR-5 ovarian) was greater than 10 µM. The TGI (OVCAR-8 ovarian) was greater than 10 µM, the TGI (PC-3 prostate) was greater than 10 µM and the TGI (RPMI-8226 leukemia) was greater than 10 µM. The TGI (RXF 393 renal) was greater than 10 µM, the TGI (SF-268 CNS) was greater than 10 µM and the TGI (SF-295 CNS) was greater than 10 µM. For the same molecule, the TGI (SF-539 CNS) was greater than 10 µM, the TGI (SK-MEL-2 melanoma) was greater than 10 µM and the TGI (SK-MEL-28 melanoma) was greater than 10 µM. For the same molecule, the TGI (SK-MEL-5 melanoma) was greater than 10 µM, the TGI (SK-OV-3 ovarian) was greater than 10 µM and the TGI (SN12C renal) was greater than 10 µM. It also gave a TGI (SNB-19 CNS) greater than 10 µM, a TGI (SNB-75 CNS) greater than 10 µM and a TGI (SR leukemia) greater than 10 µM. For the same molecule, the TGI (SW-620 colon) was greater than 10 µM, the TGI (T-47D breast) was greater than 10 µM and the TGI (TK-10 renal) was greater than 10 µM. The TGI (U251 CNS) was greater than 10 µM, the TGI (UACC-62 melanoma) was greater than 10 µM and the TGI (UO-31 renal) was greater than 10 µM.

`O=Cc1c2c(cc3c1CC1(C3)Cc3cc4c(c(C=O)c3C1)CCCC4)CCCC2` was tested, and the TGI (786-0 renal) was greater than 31.6 µM, the TGI (A549 NSCLC) was greater than 31.6 µM and the TGI (ACHN renal) was greater than 31.6 µM. It also gave a TGI (CAKI-1 renal) greater than 100 µM, a TGI (CCRF-CEM leukemia) of 30.2 µM and a TGI (COLO 205 colon) greater than 31.6 µM. The TGI (DU-145 prostate) was greater than 100 µM, the TGI (EKVX NSCLC) was greater than 31.6 µM and the TGI (HCC-2998 colon) was greater than 31.6 µM. For the same molecule, the TGI (HCT-116 colon) was greater than 31.6 µM, the TGI (HCT-15 colon) was greater than 31.6 µM and the TGI (HL-60(TB) leukemia) was greater than 100 µM. For the same molecule, the TGI (HOP-62 NSCLC) was greater than 31.6 µM, the TGI (HOP-92 NSCLC) was greater than 31.6 µM and the TGI (HS 578T breast) was greater than 31.6 µM. For the same molecule, the TGI (HT29 colon) was greater than 31.6 µM, the TGI (IGROV1 ovarian) was greater than 31.6 µM and the TGI (K-562 leukemia) was 54.1 µM. For the same molecule, the TGI (KM12 colon) was greater than 31.6 µM, the TGI (LOX IMVI melanoma) was greater than 31.6 µM and the TGI (M14 melanoma) was greater than 31.6 µM. For the same molecule, the TGI (MALME-3M melanoma) was greater than 31.6 µM, the TGI (MCF7 breast) was greater than 31.6 µM and the TGI (MDA-MB-231 breast) was greater than 31.6 µM. For the same molecule, the TGI (MDA-MB-435) was greater than 31.6 µM, the TGI (MDA-N) was greater than 31.6 µM and the TGI (MOLT-4 leukemia) was 23.2 µM. For the same molecule, the TGI (NCI-H226 lung) was greater than 31.6 µM, the TGI (NCI-H23 lung) was greater than 31.6 µM and the TGI (NCI-H460 lung) was greater than 100 µM. The TGI (NCI-H522 lung) was 27.3 µM, the TGI (NCI/ADR-RES ovarian) was greater than 31.6 µM and the TGI (OVCAR-3 ovarian) was greater than 31.6 µM. It also gave a TGI (OVCAR-4 ovarian) greater than 31.6 µM, a TGI (OVCAR-5 ovarian) greater than 31.6 µM and a TGI (OVCAR-8 ovarian) greater than 31.6 µM. For the same molecule, the TGI (PC-3 prostate) was greater than 31.6 µM, the TGI (RPMI-8226 leukemia) was 30.3 µM and the TGI (RXF 393 renal) was greater than 31.6 µM. It also gave a TGI (SF-268 CNS) greater than 100 µM, a TGI (SF-295 CNS) greater than 31.6 µM and a TGI (SF-539 CNS) greater than 31.6 µM. The TGI (SK-MEL-28 melanoma) was greater than 100 µM, the TGI (SK-MEL-5 melanoma) was greater than 31.6 µM and the TGI (SK-OV-3 ovarian) was greater than 31.6 µM. For the same molecule, the TGI (SN12C renal) was greater than 31.6 µM, the TGI (SNB-19 CNS) was greater than 100 µM and the TGI (SNB-75 CNS) was greater than 100 µM. It also gave a TGI (SR leukemia) of 22.2 µM, a TGI (SW-620 colon) greater than 100 µM and a TGI (T-47D breast) greater than 31.6 µM. For the same molecule, the TGI (TK-10 renal) was greater than 31.6 µM, the TGI (U251 CNS) was greater than 31.6 µM and the TGI (UACC-257 melanoma) was greater than 31.6 µM. It also gave a TGI (UACC-62 melanoma) greater than 31.6 µM.
